Here are results for 36 compounds from patent publication US8575158B2, “1-phenyl-substituted heterocyclyl derivatives and their use as prostaglandin D2 receptor modulators” (Actelion Pharmaceuticals Ltd., priority 2010, dated 2013).

Structures are written as SMILES.

The target of the assay is T1, hCRTH2 receptor (Homo sapiens, UniProt Q9Y5Y4).
T1 construct: expressed in transfected cells; host or cells: HEK293
T1 sequence (Q9Y5Y4 1-395): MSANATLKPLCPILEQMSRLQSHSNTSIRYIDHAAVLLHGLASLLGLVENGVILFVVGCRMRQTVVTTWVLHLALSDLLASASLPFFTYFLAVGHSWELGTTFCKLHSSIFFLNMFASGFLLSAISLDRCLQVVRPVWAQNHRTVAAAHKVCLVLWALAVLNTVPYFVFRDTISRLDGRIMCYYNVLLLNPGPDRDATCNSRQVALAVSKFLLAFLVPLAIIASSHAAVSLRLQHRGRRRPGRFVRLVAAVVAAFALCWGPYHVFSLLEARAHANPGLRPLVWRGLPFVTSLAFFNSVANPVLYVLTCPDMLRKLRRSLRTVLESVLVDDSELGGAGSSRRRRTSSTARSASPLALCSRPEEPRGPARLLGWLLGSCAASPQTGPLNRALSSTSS
The experiment in a line: Radioligand displacement assay (3H-PGD2) on hCRTH2 receptor membranes. The settings on record: antagonistic activity. It counts as binding. In general terms: Displacement assays read how much labelled ligand stays bound in the presence of the test substance.

The mark [1] stands for this setting: 3H-PGD2 radioligand displacement, HEK293-hCRTH2 membranes.
Setting [2] is: 3H-PGD2 displacement on HEK293-hCRTH2 membrane fragments.
Setting [3] is: radioligand displacement (3H-PGD2), hCRTH2 receptor membranes.

As a reminder, the IC50 is the concentration that inhibits the measured activity by half. In turn, `O=C(O)COc1ccc(Cl)cc1[C@@H]1c2ccc(F)c(F)c2CCN1C(=O)OCc1ccccc1F` [Example 349, (S)-1-(2-Carboxymethoxy-5-chloro-phenyl)-5,6-difluoro-3,4-dihydro-1H-isoquinoline-2-carboxylic acid 2-fluoro-benzyl ester] yielded an IC50 under setting [1] of 8.99 nM. On the same count and under the same terms, to `O=C(O)COc1ccc(Cl)cc1[C@@H]1c2ccccc2CCN1C(=O)OCc1noc2ccccc12` [Example 298, (S)-1-(2-Carboxymethoxy-5-chloro-phenyl)-3,4-dihydro-1H-isoquinoline-2-carboxylic acid benzo[d]isoxazol-3-ylmethyl ester] belongs 2.49 nM; to `CN(CC(=O)N1CCc2ccccc2C1c1cc(Cl)ccc1OCC(=O)O)c1ccccc1` (racemic) [Example 439], 379 nM. `Cc1ncc(COC(=O)N2CCc3ccccc3[C@H]2c2cc(Cl)ccc2OCC(=O)O)s1` [Example 277, (S)-1-(2-Carboxymethoxy-5-chloro-phenyl)-3,4-dihydro-1H-isoquinoline-2-carboxylic acid 2-methyl-thiazol-5-ylmethyl ester] gave an IC50 under setting [2] of 0.77 nM. The same measure, in the same setting: to `O=C(O)COc1ccc(Cl)cc1C1c2ccccc2CCN1C(=O)OCc1ccccc1Cl` (racemic) [Example 164] belongs 0.94 nM. For `O=C(O)COc1ccc(F)cc1C1c2ccccc2CN1C(=O)OCc1ccccc1` (racemic) [Example 499], under setting [1], the IC50 worked out at 25.4 nM.

Under setting [2], `O=C(O)COc1ccc(F)cc1C1c2ccccc2CCN1C(=O)Cc1noc2ccccc12` (racemic) [Example 45, (±)-{2-[2-(2-Benzo[d]isoxazol-3-yl-acetyl)-1,2,3,4-tetrahydro-isoquinolin-1-yl]-4-fluoro-phenoxy}-acetic acid] showed an IC50 of 369 nM.

As to `O=C(O)COc1ccc(Cl)cc1C1c2ccccc2CN1C(=O)CCc1cccnc1` (racemic) [Example 505], the IC50 under setting [1] is 189 nM.

`Cc1noc(C)c1COC(=O)N1CCc2c(ccc(F)c2F)[C@H]1c1cc(Cl)ccc1OCC(=O)O` [Example 307, (S)-1-(2-Carboxymethoxy-5-chloro-phenyl)-5,6-difluoro-3,4-dihydro-1H-isoquinoline-2-carboxylic acid 3,5-dimethyl-isoxazol-4-ylmethyl ester] displayed an IC50 under setting [1] of 3.34 nM. Compound `O=C(O)COc1ccc(Cl)cc1[C@@H]1c2ccccc2CCN1C(=O)OCc1ccccc1F` [Example 357, (S)-1-(2-Carboxymethoxy-5-chloro-phenyl)-3,4-dihydro-1H-isoquinoline-2-carboxylic acid 2-fluoro-benzyl ester] returned a half-inhibitory concentration (IC50) under setting [1] of 1.23 nM. With `O=C(O)COc1ccc(F)cc1C1c2ccccc2CCN1C(=O)Cc1ccc2cccnc2c1` (racemic) [Example 48, (±)-{4-Fluoro-2-[2-(2-quinolin-7-yl-acetyl)-1,2,3,4-tetrahydro-isoquinolin-1-yl]-phenoxy}-acetic acid], the IC50 under setting [2] turned out to be 287 nM. For the compound `Cn1cncc1COC(=O)N1CCc2ccccc2[C@H]1c1cc(Cl)ccc1OCC(=O)O` [Example 290, (S)-1-(2-Carboxymethoxy-5-chloro-phenyl)-3,4-dihydro-1H-isoquinoline-2-carboxylic acid 3-methyl-3H-imidazol-4-ylmethyl ester], the 50% inhibitory concentration (IC50) under setting [1] amounted to 0.48 nM. In turn, `O=C(O)COc1ccc(Cl)cc1[C@@H]1c2ccc(F)cc2CCN1C(=O)CCn1ncc2cccc(F)c21` [Example 403] yielded an IC50 under setting [1] of 79.1 nM. `Cc1cc(C)n(CCOC(=O)N2CCc3c(ccc(F)c3F)[C@H]2c2cc(Cl)ccc2OCC(=O)O)n1` [Example 316, (S)-1-(2-Carboxymethoxy-5-chloro-phenyl)-5,6-difluoro-3,4-dihydro-1H-isoquinoline-2-carboxylic acid 2-(3,5-dimethyl-pyrazol-1-yl)-ethyl ester] displayed an IC50 under setting [1] of 5.07 nM.

On to `Cc1ccccc1CCCC(=O)N1CCc2ccccc2C1c1cc(Cl)ccc1OCC(=O)O` (racemic) [Example 111, (±)-{4-Chloro-2-[2-(4-o-tolyl-butyryl)-1,2,3,4-tetrahydro-isoquinolin-1-yl]-phenoxy}-acetic acid], for which the IC50 under setting [2] turned out to be 45 nM. Compound `O=C(O)COc1ccc(Cl)cc1[C@@H]1c2ccccc2CCN1C(=O)OCc1ccncn1` [Example 283, (S)-1-(2-Carboxymethoxy-5-chloro-phenyl)-3,4-dihydro-1H-isoquinoline-2-carboxylic acid pyrimidin-4-ylmethyl ester] displayed an IC50 under setting [2] of 7.56 nM. For `O=C(O)COc1ccc(Cl)cc1C1c2ccccc2CN1C(=O)COc1cccc2cccnc12` (racemic) [Example 509], the IC50 under setting [1] amounted to 37.8 nM. Same read-out and setting: to `O=C(O)COc1ccc(Cl)cc1[C@@H]1c2ccc(F)cc2CCN1C(=O)OCc1cnccn1` [Example 332, (S)-1-(2-Carboxymethoxy-5-chloro-phenyl)-6-fluoro-3,4-dihydro-1H-isoquinoline-2-carboxylic acid pyrazin-2-ylmethyl ester] belongs 7.65 nM. Turning to `Cc1cccc(-n2cncc2CCC(=O)N2CCc3ccccc3C2c2cc(Cl)ccc2OCC(=O)O)c1C` (racemic) [Example 85, (±)-[4-Chloro-2-(2-{3-[3-(2,3-dimethyl-phenyl)-3H-imidazol-4-yl]-propionyl}-1,2,3,4-tetrahydro-isoquinolin-1-yl)-phenoxy]-acetic acid], under setting [2], the 50% inhibitory concentration (IC50) amounted to 18.9 nM. For the compound `Cc1ccc(OCC(=O)N2CCc3ccccc3C2c2cc(Cl)ccc2OCC(=O)O)c(C)n1` (racemic) [Example 75, (±)-(4-Chloro-2-{2-[2-(2,6-dimethyl-pyridin-3-yloxy)-acetyl]-1,2,3,4-tetrahydro-isoquinolin-1-yl}-phenoxy)-acetic acid], the IC50 under setting [2] was 3.68 nM. Regarding `O=C(O)COc1ccc(F)cc1C1c2ccccc2CCN1C(=O)OCc1ccccc1Cl` (racemic) [Example 165], the IC50 under setting [2] was 5 nM. Still for that read-out and setting: to `O=C(O)COc1ccc(F)cc1C1c2ccccc2CCN1C(=O)CNS(=O)(=O)c1ccc(F)c(F)c1` (racemic) [Example 209] belongs 644 nM. `O=C(O)COc1ccc(Cl)cc1C1c2ccccc2CCN1C(=O)CCOc1ccc(Cl)cc1` (racemic) [Example 89, (±)-(4-Chloro-2-{2-[3-(4-chloro-phenoxy)-propionyl]-1,2,3,4-tetrahydro-isoquinolin-1-yl}-phenoxy)-acetic acid] came in with an IC50 under setting [2] of 37.9 nM.

Compound `O=C(O)COc1ccc(F)cc1C1c2ccccc2CCN1C(=O)CC1Cc2ccccc2C1` (racemic) [Example 140, (±)-{4-Fluoro-2-[2-(2-indan-2-yl-acetyl)-1,2,3,4-tetrahydro-isoquinolin-1-yl]-phenoxy}-acetic acid] came in with an IC50 under setting [2] of 36.4 nM. The same measure, in the same setting: the value for `O=C(O)COc1ccc(F)cc1C1c2ccccc2CCN1C(=O)CCc1cccc(Cl)c1` (racemic) [Example 132, (±)-(2-{2-[3-(3-Chloro-phenyl)-propionyl]-1,2,3,4-tetrahydro-isoquinolin-1-yl}-4-fluoro-phenoxy)-acetic acid] was 86 nM; that for `Cc1noc(C)c1COC(=O)N1CCc2ccccc2[C@H]1c1cc(Cl)ccc1OCC(=O)O` [Example 281, (S)-1-(2-Carboxymethoxy-5-chloro-phenyl)-3,4-dihydro-1H-isoquinoline-2-carboxylic acid 3,5-dimethyl-isoxazol-4-ylmethyl ester] was 4.8 nM. Take `O=C(COc1ccc(Cl)cc1[C@@H]1c2ccccc2CCN1C(=O)OCc1ccccc1)NO` [Example 569, (S)-1-(5-Chloro-2-hydroxycarbamoylmethoxy-phenyl)-3,4-dihydro-1H-isoquinoline-2-carboxylic acid benzyl ester]: under setting [3], the IC50 was 120 nM. `O=C(O)COc1ccc(Cl)cc1[C@@H]1c2ccc(F)cc2CCN1C(=O)OCCc1ccccc1` [Example 335, (S)-1-(2-Carboxymethoxy-5-chloro-phenyl)-6-fluoro-3,4-dihydro-1H-isoquinoline-2-carboxylic acid phenethyl ester] came in with an IC50 under setting [1] of 13.3 nM. `Cc1nn(CCC(=O)N2Cc3ccccc3C2c2cc(Cl)ccc2OCC(=O)O)c2c(F)cccc12` (single isomer, unassigned) [Example 540] came in with an IC50 under setting [1] of 633 nM. In turn, `O=C(O)COc1ccc(Cl)cc1C1c2ccccc2CCN1C(=O)COc1cccnc1Cl` (racemic) [Example 471] came in with a concentration for half-maximal inhibition (IC50) under setting [1] of 87.6 nM. Under setting [2], `Cc1cccc(COCC(=O)N2CCc3ccccc3C2c2cc(F)ccc2OCC(=O)O)c1` (racemic) [Example 193] yielded an IC50 of 27.7 nM. As for `O=C(OCc1ccccc1)N1CCc2ccccc2C1c1cc(Cl)ccc1OCc1noc(=O)[nH]1` (racemic) [Example 572, (±)-1-[5-Chloro-2-(5-oxo-4,5-dihydro-[1,2,4]oxadiazol-3-ylmethoxy)-phenyl]-3,4-dihydro-1H-isoquinoline-2-carboxylic acid benzyl ester], under setting [3], the IC50 turned out to be 325 nM. Turning to `O=C(O)COc1ccc(Cl)cc1C1c2ccccc2CCN1C(=O)CCn1ccc2ncccc21` (racemic) [Example 381], the IC50 under setting [1] was 31.6 nM. As to `O=C(O)COc1ccc(Cl)cc1C1c2ccccc2CCN1C(=O)Cc1c[nH]c2ccc(F)cc12` (racemic) [Example 91, (±)-(4-Chloro-2-{2-[2-(5-fluoro-1H-indol-3-yl)-acetyl]-1,2,3,4-tetrahydro-isoquinolin-1-yl}-phenoxy)-acetic acid], the IC50 under setting [2] came to 113 nM. Regarding `Cc1cccc(CCC(=O)N2CCc3ccccc3C2c2cc(Cl)ccc2OCC(=O)O)n1` (racemic) [Example 408], the IC50 under setting [1] was found to be 177 nM.

Compound `O=C(O)COc1ccc(F)cc1C1c2ccccc2CCN1C(=O)NCCc1ccccc1` (racemic) [Example 200] yielded an IC50 under setting [2] of 31 nM.
